Experimental data taken from publication PMC3901029 (Biochemical and biophysical research communications, 2013).

Biological target: MJ (MJ0796-G174W-G14C, single-Cys mutant based on Cys-less MJ0796; isolated nucleotide-binding domain) (Methanocaldococcus jannaschii, UniProt Q58206, C128I/C53G/G14C/G174W/K44A)
Experiment: Trp174 fluorescence quenching

Chain of MJ (MJ0796-G174W-G14C, single-Cys mutant based on Cys-less MJ0796; isolated nucleotide-binding domain) (Q58206 whole entry G14C/K44A/C53G/C128I/G174W, the tested form may be a part): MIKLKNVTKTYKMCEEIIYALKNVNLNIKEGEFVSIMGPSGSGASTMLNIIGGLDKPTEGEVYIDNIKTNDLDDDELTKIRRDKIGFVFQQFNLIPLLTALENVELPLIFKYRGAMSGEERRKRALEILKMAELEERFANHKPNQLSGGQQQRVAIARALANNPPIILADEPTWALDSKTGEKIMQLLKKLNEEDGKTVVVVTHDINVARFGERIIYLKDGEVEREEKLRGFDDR

## Nc1ncnc2c1ncn2[C@@H]1O[C@H](COP(=O)(O)OP(=O)(O)OP(=O)(O)O)[C@@H](O)[C@H]1O [ATP]
  Kd: 70 ± 13 µM
